Structures are written as SMILES.

One data set deals with Akt1. As to the kind of experiment: Rat CNS biomarker assay, Akt1 ELISA in CNS lysates. It is filed as in vivo. The conditions noted are these: intraperitoneally, versus vehicle. For orientation: ELISA stands for enzyme-linked immunosorbent assay.
A short description of data set [1]: Rat CNS exposure (plasma and CNS tissue concentration, LC-MS/MS). The format is in vivo. The note with it: ex-vivo CNS tissue. The method, then: Test subjects (Sprague-Dawley rats) were housed in sterile vivarium with controlled temperature, humidity and 12-hour light-dark cycle (7:00 lights-on and 19:00 lights-off). Following procurement, rats were acclimated to the vivarium facility for 7 days prior to study day-1 with ad libitum access to both diet and water. Bedding was changed twice weekly. […] On study day-1 rats were administered vehicle or Hsp90 inhibitor formulation. Following administrations of test article formulation, blood and CNS tissue was collected at 6.5 h post-dosed by a necropsy procedure. In detail, CNS tissue was isolated from the Vehicle and dose groups, divided into 2 mid-sagittal sections, placed in tarred 1 mL micro-centrifuge tubes, weighed and immediately frozen on dry ice. Blood was isolated by a cardiac puncture procedure from the Vehicle and Hsp90 inhibitor dose groups. From these samples, plasma was isolated in plasma separator tubes containing ethylenediaminetetraacetic acid as the anticoagulant. HSP90 inhibitor concentrations in plasma and CNS tissue were determined using LC-MS/MS based methods following a 60% acetonitrile extraction.

For another data set, the system named is Caspase-3 in LnCaP cells. Nature of the data set: Caspase 3/7 induction. It is filed as cell-based, human. The note with it: 10 μM concentration. As to the method:
Akt1 levels in the cell lysates were measured using kits from R&D Systems used according to the manufacturer's recommendations. Cell lysates were assayed at a 1:24 dilution for the Akt1 ELISA. The Akt1 concentrations in the cell lysates were extrapolated from the standard curve and corrected for lysate protein concentration. Akt1 levels were determined using a micro-titer plate reader (Model #Synergy HT; BioTek Inc., Winooski, Vt.). LnCaP cells were cultured in culture medium and passaged after lifting using 0.25% trypsin/EDTA. LnCaP cells were seeded into a 96 well tissue culture plate at 1.3×10^4 cells per well in a volume of 100 uL of culture medium. […] Caspase 3/7 activity was measured using a Homogeneous Caspase 3/7 Assay Kit used according to the manufacturer's recommendations. In detail, an equal volume of Caspase 3/7 Assay Kit reagent was added to the wells and fluorescence readings (Ex/Em 485/528) were taken after 3, 6, and 23 h at ambient temperature using a micro-titer plate reader. […] Fluorescence intensities of the dilutions were measured to obtain a standard curve. […] Cell viability was measured with the ATPlite Kit used according to the manufacturer's recommendation. […] Cultures were mixed at 1,000 rpm for 2 min in the dark and luminescence quantification was accomplished using a micro-titer plate reader (POLARstar Omega micro-titer plate reader; BMG Labtech).

In a further data set the test system is HepG2. Nature of the data set: Cell viability / efficacy in liver cancer cells, ADP-GLO. The format is cell-based. The method, then:
(§1) The effect of SBI-0640725 on cell viability was determined by measuring cellular dehydrogenase activity (U251MG and MBA-MD-231 cells) or by measuring ADP levels (HepG2) after treating cells for 72 hours with increasing concentrations of SBI-0640725. To measure dehydrogenase activity, CCK-8 kit reagent (Dojindo) was added to the wells and incubated for 2 hours, after which absorbance was measured at 450 nm using a Synergy HT micro-titer plate reader (Biotek). To measure ADP levels, ADP-GLO reagent (Life Technologies) was added to the wells, and luminescence was measured after a 30 minute incubation using a POLARstar Omega micro-titer plate reader (BMG).
(§2) The table below summarizes efficacy of SBI-0640725 in various cancer cell lines, including U251MG, MDA-MB-231, and HepG2, using ADP-GLO assay described above. As used herein “efficacy” (EC50) is the concentration of a compound that produces half-maximal response in a cellular assay.
A general note: In ADP-Glo the light output rises with the ADP produced.

The next data set concerns U251MG. Nature of the data set: Cell viability / efficacy in GBM cells. It is filed as cell-based, human. As to the method:
as §1, §2

The subject of another data set is EGFR in U251MG cells. Nature of the data set: Hsp90 client protein stability, EGFR. It is filed as cell-based, human. The conditions noted are these: 48 hours, increasing concentrations.
Another data set concerns R127. As to the kind of experiment: Efficacy in ovarian cancer cells, ADP-GLO. It is filed as cell-based. The method, then: as §1, §2
A further data set deals with R182. As to the kind of experiment: Efficacy in ovarian cancer cells, ADP-GLO. It is filed as cell-based. The method, then:
as §1, §2

The subject of a further data set is U251MG cells. Nature of the data set: Mitochondrial integrity in cells, TMRE fluorescence. It is filed as cell-based, human. The note with it: 48 hours. As to the method: Additional experiments were performed to determine the effect of SBI-0640725 on mitochondrial integrity. U251MG cells were treated with tetramethylrhodamine ethyl ester (TMRE), and fluorescence was visualized using fluorescence confocal microscopy (FIG. 16 panel A), or quantitated using a fluorimeter (FIG. 16 panel B) after cells had been treated with increasing concentrations of SBI-0640725 for 48 hours. […] In experiments using isolated mitochondria, mitochondrial membrane potential was determined as a measure of mitochondrial integrity. TMRE-loaded mitochondria isolated from U251MG cells were treated with either 10 μM (left bar of the pair in FIG. 17) or 2 μM (right bar of the pair in FIG. 17) SBI-0640725 while continually monitoring changes in fluorescence intensity at 30° C.

For the compound `COc1c(C)cnc(CN(CCc2ccccc2)c2cc(Cl)nc(N)n2)c1C` [SBI-0639353, 6-Chloro-N4-((4-methoxy-3,5-dimethylpyridin-2-yl)methyl)-N4-phenethylpyrimidine-2,4-diamine], the “Akt1 level in CNS tissues” value in the data set with Akt1 was “a decrease in its levels compared to vehicle treated rats”. The “partitioning CNS (brain) versus plasma” value is recorded as “preferential partitioning into the brain compared to plasma” in data set [1] and “preferential partitioning” in data set [1] (listed as SB-0639353). In addition, in the data set with Caspase-3 in LnCaP cells, the “induction of Caspase-3” value is given as “induction of Caspase-3”.
Take `COc1c(C)cnc(CN(CCc2ccc(F)cc2)c2cc(Cl)nc(N)n2)c1C` [SBI-0640725]: the cell viability result with HepG2 (HepG2, 72 hours, ADP levels (ADP-GLO)) is recorded as “reduction in cell viability”; with U251MG (72 hours, dehydrogenase activity (CCK-8)) it was “reduction in cell viability”. Further, the EC50 stood at 1300 nM with HepG2 (Homo sapiens, Liver Cancer, HepG2, ADP-GLO); 880 nM in the data set with U251MG (Homo sapiens, U-251, GBM, ADP-GLO); 410 nM with R127; 690 nM with R182. In addition, the “level of the client protein EGFR” value with EGFR in U251MG cells is listed as “observed to decrease”. Also, in the data set on U251MG cells, the “mitochondrial integrity (retention of de-esterified TMRE)” value is “decrease proportionately with increasing concentrations”.

In general, EC50 refers to the concentration needed to bring the measured effect to its halfway point.

The values above are taken from patent US20160311795A1, “PYRIMIDINE DIAMINE DERIVATIVES AS INHIBITORS OF CYTOSOLIC HSP90” (CALASIA PHARMACEUTICALS, INC., priority 2012, published 2016).
